Measured values reported in patent publication US12728119B2, “Pharmaceutical composition for preventing or treating cancer comprising 3-ketoacyl CoA thiolase inhibitor and carnitine acylcarnitine carrier inhibitor” (NATIONAL CANCER CENTER, priority 2020, dated 2026).
Several values for one entry are separate records, joined by “and”; a condition that tells them apart may be missing. Equal entries are not always repeated.

Legend:
Experiment in all cases: SRB analysis 2
Format in all cases: cell-based
[1] = tested on: BxPC-3 pancreatic cancer cells; conditions: 48 hours
Protocol: (§1) The SRB assay was performed as follows: each cell line (100 μl) was seeded into 96-well microtiter plates at densities ranging from 5,000 to 20,000 cells/well depending on the doubling time of each cell line. After cell seeding, microtiter plates were incubated for 24 h before addition of experimental drug. Drugs were prepared at the indicated concentrations and 100 μl was added to each well; The plates were then incubated in a CO2 incubator. Then, cold TCA was added to terminate the assay. Cells were fixed in situ by gentle addition of 50 μl of cold 50% (w/v) TCA (final concentration: 10% TCA) and incubated at 4° C. for 60 min. The supernatant was discarded and the plate was washed 5 times with tap water and then air dried. A solution (100 μl) of 0.4% (w/v) SRB (Sulforhodamine B) in 1% acetic acid was added to each well, and the plate was left at room temperature for 10 minutes. After staining, the plates were air dried after washing 5 times with 1% acetic acid to remove unbound dye. The bound dye was then solubilized with 10 mM trizma base and the absorbance was recorded at 515 nm using an automated plate reader.

[2] = tested on: AsPC-1 pancreatic cancer cells; conditions: 48 hours
Protocol: as §1

[3] = tested on: SU.86.86 pancreatic cancer cells; conditions: 48 hours
Protocol: as §1

[4] = tested on: SNU-213 pancreatic cancer cells; conditions: SNU213, 48 hours
Protocol: as §1

[5] = tested on: MIA PaCa2 pancreatic cancer cells; conditions: MIA PaCa-2, 48 hours
Protocol: as §1

[6] = tested on: Panc-1 pancreatic cancer cells; conditions: 48 hours
Protocol: as §1

[7] = tested on: SW1990 pancreatic cancer cells; conditions: 48 hours
Protocol: as §1

[8] = tested on: SNU-324 pancreatic cancer cells; conditions: SNU324, 48 hours
Protocol: as §1

`Cc1c(OCC(F)(F)F)ccnc1C[S+]([O-])c1nc2ccccc2[nH]1` (centres unmarked) [KN511, lansoprazole] was tested, and the “degree of cell growth based on the control (100%)” value (“degree … (100%)” for short) ([1]; KN511 50 μM) was 30.51% and 41.39%, the “degree … (100%)” value ([1]; KN511 100 μM) was −4.87% and −1.66% and the “degree … (100%)” value ([2]; KN511 50 μM) was 44.46% and 38.02%. The “degree … (100%)” value ([2]; KN511 100 μM) was 20.33% and 14.98%, the “degree … (100%)” value ([3]; KN511 50 μM) was 44.93% and 31.47% and the “degree … (100%)” value ([4]; KN511 50 μM) was 46.12% and 49.55%. The “degree … (100%)” value ([5]; KN511 50 μM) was 72.22% and 68.24%, the “degree … (100%)” value ([5]; KN511 100 μM) was 24.61% and 16.12% and the “degree … (100%)” value ([6]; KN511 50 μM) was 65.77% and 39.30%. For the same compound, the “degree … (100%)” value ([7]; KN511 50 μM) was 2.62% and 7.49%, the “degree … (100%)” value ([7]; KN511 100 μM) was −25.25% and the “degree … (100%)” value ([8]; KN511 50 μM) was 16.15% and 17.09%. The “degree … (100%)” value ([8]; KN511 100 μM) was 4.93% and 8.06%.
With `COc1ccnc(C[S+]([O-])c2nc3ccc(OC(F)F)cc3[nH]2)c1OC` (centres unmarked) [KN512, pantoprazole] the “degree … (100%)” value ([1]; KN512 100 μM) was 34.14% and 49.52%, the “degree … (100%)” value ([1]; KN512 200 μM) was −10.63% and −6.75% and the “degree … (100%)” value ([2]; KN512 100 μM) was 64.75% and 71.27%. The “degree … (100%)” value ([2]; KN512 200 μM) was 23.37% and 25.43%, the “degree … (100%)” value ([3]; KN512 100 μM) was 59.26% and 70.59% and the “degree … (100%)” value ([3]; KN512 200 μM) was 19.69% and 26.47%. For the same compound, the “degree … (100%)” value ([4]; KN512 100 μM) was 66.09% and 59.49%, the “degree … (100%)” value ([4]; KN512 200 μM) was 36.60% and 51.18% and the “degree … (100%)” value ([5]; KN512 100 μM) was 62.60% and 66.74%. For the same compound, the “degree … (100%)” value ([5]; KN512 200 μM) was 5.82% and 1.98%, the “degree … (100%)” value ([6]; KN512 100 μM) was 54.90% and 57.01% and the “degree … (100%)” value ([6]; KN512 200 μM) was 6.03% and 12.81%. For the same compound, the “degree … (100%)” value ([7]; KN512 100 μM) was 70.30% and 73.00%, the “degree … (100%)” value ([7]; KN512 200 μM) was 25.58% and 41.93% and the “degree … (100%)” value ([8]; KN512 100 μM) was 61.20% and 74.13%. The “degree … (100%)” value ([8]; KN512 200 μM) was 23.82% and 21.77%.
